The values that follow come from patent publication US20240207192A1, “PHARMACEUTICAL COMPOSITIONS CONTAINING A PIPERIDINYL-METHYL-PURINE AMINE AND THEIR USE IN TREATING DISEASES AND CONDITIONS” (K36 THERAPEUTICS, INC., priority 2022, published 2024).

Counter-ions that a name gives are not always drawn.

What all share (type): physicochemical
A short description of data set [1]: Storage stability of Formulations 1 to 4, related substances by HPLC. Particulars: 40° C./75% relative humidity, capped glass vials. The procedure: An aliquot of each of Formulation 1, 2, 3, and 4 was subjected to stability testing. In particular, an amount of each formulation sufficient to provide 11.4 mg of Compound 1 was transferred to glass vials and then the vials were capped. The glass vials were stored at 40° C./75% relative humidity for three to six weeks. Samples were analyzed by HPLC to determine the amount of related substances in the formulation.

A short description of data set [2]: Storage stability of Formulations 5, 6 and 7, related substances by HPLC. As for the experimental part:
An aliquot of each of Formulation 5, 6, and 7 was subjected to stability testing. In particular, an amount of each formulation sufficient to provide 11.4 mg of Compound 1 was transferred to a glass vial bottle and then the bottle was capped. The glass vials were stored at (a) 40° C./NMT 25% relative humidity or (b) 40° C./75% relative humidity. Samples were analyzed by HPLC to determine the amount of related substances in the formulation.
(§1) Table 2 presents results for samples stored at 40° C./25% relative humidity. Table 3 presents results for samples stored at 40° C./75% relative humidity.

Data set [3] can be described thus: Storage stability of Formulations 8, 9 and 10, related substances. As for the experimental part:
An aliquot of each of Formulation 8, 9, and 10 was subjected to stability testing. In particular, an amount of each formulation sufficient to provide 14.3 mg of Compound 2 was transferred to a glass vial and then the vial was capped. The glass vials were stored at (a) 40° C./NMT 25% relative humidity or (b) 40° C./75% relative humidity. Samples were analyzed to determine the amount of related substances in the formulation.
as §1

[4] abbreviates: 40° C./25% (NMT 25%) relative humidity.

For `COc1cc(F)c(-c2cc(Cn3cnc4c(N)ncnc43)c(N3CCC[C@](N)([C@H](O)C(F)F)C3)cn2)cc1F` [Compound 1, (S)-1-((R)-3-amino-1-(4-((6-amino-9H-purin-9-yl)methyl)-6-(2,5-difluoro-4-methoxyphenyl)pyridin-3-yl)piperidin-3-yl)-2,2-difluoroethan-1-ol D-Tartrate], the “Percentage of Related Substances in the Formulation (% as Determined by HPLC), 3 Weeks Storage” value in data set [1] (3 weeks) was found to be 0.42%. In addition, the “Percentage of Related Substances in the Formulation (% as determined by HPLC), 6 Weeks Storage” value in data set [1] (6 weeks) was determined as 0.41%; in data set [2] (40° C./75% relative humidity, 6 weeks), 0.57%. In addition, the “Percentage of Related Substances in the Formulation (% as determined by HPLC), 2 Weeks Storage” value in data set [2] (setting [4]) is 0.56%; in data set [2] (40° C./75% relative humidity), 0.57%. Moreover, the “Percentage of Related Substances in the Formulation (% as determined by HPLC), 4 Weeks Storage” value in data set [2] (40° C./25% (NMT 25%) relative humidity, 4 weeks) was found to be 0.57%.

With `COc1cc(F)c(-c2cc(Cn3cnc4c(N)ncnc43)c(N3CCC[C@](N)([C@H](O)C(F)F)C3)cn2)cc1F` [Compound 2, (S)-1-((R)-3-amino-1-(4-((6-amino-9H-purin-9-yl)methyl)-6-(2,5-difluoro-4-methoxyphenyl)pyridin-3-yl)piperidin-3-yl)-2,2-difluoroethan-1-ol Fumarate], in data set [3] (setting [4]), the “Percentage of Related Substances in the Formulation (% as determined by HPLC), 2 Weeks Storage” value came to 0.55%; the “Percentage of Related Substances in the Formulation (% as determined by HPLC), 4 Weeks Storage” value amounted to 0.55%; the “Percentage of Related Substances in the Formulation (% as determined by HPLC), 6 Weeks Storage” value turned out to be 0.56%. In addition, in data set [3] (40° C./75% relative humidity), the “Percentage of Related Substances in the Formulation (% as determined by HPLC), 2 Weeks Storage” value is on record as 0.55%; the “Percentage of Related Substances in the Formulation (% as determined by HPLC), 4 Weeks Storage” value was determined as 0.56%; the “Percentage of Related Substances in the Formulation (% as determined by HPLC), 6 Weeks Storage” value is 0.55%.
